Where two headings read alike, the source gives them in different places.
Experiments:
[1] = tested on: α-2(a)-(c) adrenergic receptor subtypes; test: α-2 receptor subtype preference, α-2(a)-(c) (Table 1); type: binding
Log P (Table 1) = type: physicochemical
eye [2] = details: for effectiveness at reducing eye redness: both general eye redness and eye redness induced by drug administration
Description: Redness reduction is on a scale from 0.00 to 4.00 with 0.00 denoting the greatest redness reduction and 4.00 denoting no redness reduction. Whitening is on a scale from 0.00 to 4.00 with 0.00 denoting pearly white, glistening color and 4.00 denoting no whitening effect.

[3] = tested on: α-2 over α-1 adrenergic receptors
[4] = tested on: conjunctival hyperemia / whiteness of eye; details: for subjects reporting reduced hyperemia and increased whiteness in the treated eye: […] brimonidine, one eye, 8 human subjects
Method: (§1) The subjects were administered with the drug in one eye and then asked to assess themselves in the mirror to see if they perceived a difference in conjunctival hyperemia between eyes. The assessments were made 5 minutes after the administration and 4 hours after the administration. After the four hours assessment, the drug was re-administered.

nasal congestion = tested on: nasal congestion
Method: as §1

eye [5] = details: […] brimonidine
Method: FIG. 13 is a photograph of both eyes of the person before the drug was administered. FIG. 14A is a close-up photograph of the right eye and FIG. 14B is a close-up photograph of the left eye.

[6] = with or without redness induced by drug administration

Row | Compound | α-2(a)-(c) [1] | logP (Log P (Table 1)) | effectiveness at reducing eye redness (eye [2]) | further whitening eyes beyond their usual color (eye [2]; [6]) | Selectivity [3] | Log P (Log P (Table 1)) | Other (pH dependence of effect) (eye [2]; in vivo) | Redness Reduction (eye [2]; in vivo) | subjects reporting reduced hyperemia and increased whiteness in the treated eye ([4]; 5 min assessment) | subjects reporting reduced hyperemia and increased whiteness in the treated eye ([4]; four hour assessment) | effect on redness and whiteness of eyes ([4]; low dose ([…]) brimonidine, Example 3 conclusion) | subjects reporting reduced nasal congestion in the nostril on the same side as the treated eye (nasal congestion; […] brimonidine, one eye, four hour assessment, 8 human subjects) | effect on nasal congestion (nasal congestion; in several subjects, nostril on the same side as the treated eye, Example 3 conclusion) | cosmetic whitening of an eye (eye [5]; right eye, person with healthy eyes, left eye untreated) | effect on redness and whiteness of an eye (eye [5]; child patient) | effect on redness and whiteness of an eye (eye [5]; patient with glaucoma receiving Lumigan (bimatoprost 0.03%)) | further whitening eyes beyond their usual color (eye [2]; after redness inducing drug administration)
1 | Cc1cccc([C@H](C)c2cnc[nH]2)c1C [Dexmedetomidine, dexmedetomidine] | general | 3 | highly effective | generally ineffective | 1660 |  |  |  |  |  |  |  |  |  |  |  | 
2 | Oc1ccc2c(c1)C(Cc1c[nH]cn1)CC2 (stereo not shown) [Fadolmidine, fadolmidine] | general |  |  |  |  | 2.16 |  |  |  |  |  |  |  |  |  |  | 
3 | guanfacine | 2(a) high |  | highly effective | highly effective |  |  | >effect hi pH | 0.00 |  |  |  |  |  |  |  |  | 
4 | Brc1c(NC2=NCCN2)ccc2nccnc12 [Brimonidine, brimonidine] | general | 1 | highly effective |  |  |  | >effect lo pH |  | eight of eight | eight of eight | significant reduction of redness and increase of whiteness | six of eight | reducing nasal congestion | noticeably cosmetically whitened | significant reduction of redness and increase of whiteness | significant reduction of redness and increase of whiteness | general ineffectiveness
